This is an account of results in patent US4867973A, “Antibody-therapeutic agent conjugates” (Cytogen Corporation, priority 1984, dated 1989).

Ends that are not written are not given here. Peptide text beside a SMILES is read from it. * marks the point of attachment. AMC = Cc1cc(=O)oc2cc(N*)ccc12; Boc = CC(C)(C)OC(=O)*

Common to all, as to type: biochemical
Assay [1] concerns the target T1, urokinase (Homo sapiens, UniProt P00749). As to the kind of experiment: Fluorescence assay of AMC release from peptide linker by urokinase. Particulars: urokinase 0.1 ug/ml; peptide 5 uM. Here is the method: (§1) The rates of cleavage for the peptide linker were measured by fluorescence quenching using a Perkin Elmer 650-10S fluorescence spectrometer (Perkin-Elmer Corporation, Norwalk, Conn.). The excitation and emission wavelengths were 380 nm and 460 nm, respectively and the temperature was maintained at 25° C. with a Lauda k-2/R circulating water bath (Brinkmann Instruments, Westbury, N.Y.).
(§2) The initial concentrations of Gly-Gly-Arg-AMC were determined by optical density, Σ^1M325 =16,000. The solutions were adjusted to 1 uM concentrations. One ml of the 1 uM solution in PBS, pH 7.4 was placed in a cuvette. The appropriate amounts of enzyme (1 ug/ml trypsin or 10 ug/ml urokinase) was then added at room temperature with stirring using a motor-driven syringe and the reaction kinetics were followed for several minutes. The fluorescence intensity of a known concentration of free AMC was established and used as a baseline to determine the change in units per nM/minute of free AMC in this fluorescence assay system.
(§3) In another experiment, the Gly-Gly-Arg-AMC concentration was 100 uM and the trypsin used at 100 ug/ml. In another embodiment of the present invention, the Gly-Gly-Arg-AMC was conjugated to oxidized dextran which can serve as a spacer as described in Section 5.4.3 (10,000 molecular weight) (Pharmacia Fine Chemicals, Piscataway, N.J.) by the methods of the present invention using a molar ratio of Gly-Gly-Arg-AMC to dextran of 58:1. Dextran-Gly-Gly-Arg-AMC was separated with a 6.5 ml Sephadex® G-25 column (Pharmacia Fine Chemicals, Piscataway, N.J.).
(§4) Peptide sequences that are analogs of complement components were cleaved by trypsin (0.1 ug/ml), urokinase (0.1 ug/ml), plasmin (1 ug/ml) and purified complement components C4,2 and C1s (40 ug/ml). The data in Table V compare the cleavage rates (nM/minute) of these sequences. The fluorescence assay described in Section 8 for cleavage of Gly-Gly-Arg-AMC was used here. Complement components were purified and assayed by the method of Tack and Prahl (Biochem., 1976, 15:4513-4521).

Assay [2] deals with trypsin. Nature of the assay: Fluorescence assay of AMC release from peptide linker by trypsin. To be noted: for Cleavage Rates, Trypsin: trypsin 0.1 ug/ml, peptide 5 uM. The procedure:
as §1, §2, §3, §4

The target of assay [3] is T1, urokinase. As to the kind of experiment: Release of 125I-Tyr from radiolabeled peptide by urokinase (agarose gel electrophoresis or TLC). Particulars: urokinase 10 ug/ml; substrate 0.1 uM; 125I-Tyr release. Here is the method:
(§5) For the purposes of the present example, the tetrapeptide Glycine-Glycine-Arginine-Tyrosine was radiolabeled at the amino acid residue tyrosine with 125 Iodine (125 I) (Greenwood et al. 1963, Biochem. J. 88: 114-120). This radiolabeled compound is hereinafter referred to as Gly-Gly-Arg-Tyr* (wherein the * denotes ^125 I).
(§6) The peptide Gly-Gly-Arg-Tyr* was assayed for the release of the 125I labeled tyrosine residue by agarose gel electrophoresis or thin-layer chromatography (TLC, Sono and Asakura, 1974, Biochem 13:4386-4394). Briefly, appropriate amounts of enzyme were added to a reaction tube containing 0.1 uM Gly-Gly-Arg-Tyr in PBS, pH 7.4. The mixture was incubated at 37° C. for 30 minutes. Three ul of this reaction mixture were then applied to an agarose gel (1%) and run at high voltage (120 V/cm) in Barbitol Buffer, 0.025 M sodium diethylbarbituate HCl buffer, pH 8.6. Three ul of bromophenol blue solution was used as a marker to determine the end of the run. The agarose gel was then cut into sections and counted in a LKB 1271 gamma counter (LKB Instruments, Gaithersburg, Md.) to determine if the Tyr remained at the origin or migrated through the gel. Alternatively, samples were separated and identified by TLC as described supra. […] The plate was dried and divided into ten sections which were counted in a gamma counter. […]

Assay [4] concerns trypsin. As to the kind of experiment: Release of 125I-Tyr from radiolabeled peptide by trypsin (agarose gel electrophoresis or TLC). To be noted: trypsin 1 ug/ml; substrate 0.1 uM; 125I-Tyr release. The procedure:
as §5, §6

The target of assay [5] is T2, purified complement component C1s (Homo sapiens, UniProt P09871).
T2 construct: from tissue
T2 sequence (P09871 16-688): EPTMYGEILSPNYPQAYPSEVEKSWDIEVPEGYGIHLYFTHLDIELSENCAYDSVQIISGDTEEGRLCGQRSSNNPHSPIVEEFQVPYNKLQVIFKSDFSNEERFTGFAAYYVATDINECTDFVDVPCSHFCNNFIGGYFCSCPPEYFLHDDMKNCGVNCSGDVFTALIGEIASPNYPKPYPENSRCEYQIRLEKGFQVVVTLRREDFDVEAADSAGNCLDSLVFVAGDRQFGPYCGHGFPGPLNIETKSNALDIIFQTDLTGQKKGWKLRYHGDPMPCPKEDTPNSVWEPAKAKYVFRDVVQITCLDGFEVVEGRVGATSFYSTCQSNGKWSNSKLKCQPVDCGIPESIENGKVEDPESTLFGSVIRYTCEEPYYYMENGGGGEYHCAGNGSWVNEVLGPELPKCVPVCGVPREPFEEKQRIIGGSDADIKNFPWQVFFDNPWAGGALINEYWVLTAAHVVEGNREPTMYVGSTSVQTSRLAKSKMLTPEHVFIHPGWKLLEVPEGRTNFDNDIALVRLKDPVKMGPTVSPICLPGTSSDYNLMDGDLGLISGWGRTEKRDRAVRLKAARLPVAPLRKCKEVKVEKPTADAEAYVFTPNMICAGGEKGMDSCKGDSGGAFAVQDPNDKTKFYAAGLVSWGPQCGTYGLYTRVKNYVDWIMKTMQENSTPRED
Nature of the assay: Fluorescence assay of AMC release by purified complement component C1s. To be noted: 10 ug/ml enzyme; peptide 5 uM. From the text:
The data in Table V compare the cleavage rates (nM/minute) of these sequences. The fluorescence assay described in Section 8 for cleavage of Gly-Gly-Arg-AMC was used here. Complement components were purified and assayed by the method of Tack and Prahl (Biochem., 1976, 15:4513-4521).

In assay [6] the target is T3, purified complement component C4,2 (Homo sapiens, UniProt P06681).
T3 construct: from tissue
As to the kind of experiment: Fluorescence assay of AMC release by purified complement component C4,2. To be noted: 40 ug/ml enzyme; peptide 5 uM. Here is the method:
as §4

A further assay concerns the target plasmin (Homo sapiens, UniProt P00747). Nature of the assay: Fluorescence assay of AMC release by plasmin. To be noted: plasmin 1 ug/ml; peptide 5 uM. The procedure: as §4

T3 sequence (P06681 244-752 limits assumed): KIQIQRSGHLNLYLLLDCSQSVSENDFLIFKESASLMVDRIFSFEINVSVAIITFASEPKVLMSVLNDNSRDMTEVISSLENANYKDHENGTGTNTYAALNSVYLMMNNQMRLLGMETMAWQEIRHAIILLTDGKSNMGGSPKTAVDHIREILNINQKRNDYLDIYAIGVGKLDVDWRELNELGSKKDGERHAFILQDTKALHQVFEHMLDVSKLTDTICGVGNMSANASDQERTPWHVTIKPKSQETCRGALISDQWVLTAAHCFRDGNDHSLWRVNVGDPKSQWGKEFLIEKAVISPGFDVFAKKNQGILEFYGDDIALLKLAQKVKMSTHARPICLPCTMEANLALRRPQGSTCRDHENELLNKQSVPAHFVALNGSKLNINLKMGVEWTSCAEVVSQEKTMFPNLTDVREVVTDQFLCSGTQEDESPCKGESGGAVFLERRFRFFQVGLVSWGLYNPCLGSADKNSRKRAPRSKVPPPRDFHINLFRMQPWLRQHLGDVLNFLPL
T3 sequence (P0C0L4 20-675 partner limits assumed): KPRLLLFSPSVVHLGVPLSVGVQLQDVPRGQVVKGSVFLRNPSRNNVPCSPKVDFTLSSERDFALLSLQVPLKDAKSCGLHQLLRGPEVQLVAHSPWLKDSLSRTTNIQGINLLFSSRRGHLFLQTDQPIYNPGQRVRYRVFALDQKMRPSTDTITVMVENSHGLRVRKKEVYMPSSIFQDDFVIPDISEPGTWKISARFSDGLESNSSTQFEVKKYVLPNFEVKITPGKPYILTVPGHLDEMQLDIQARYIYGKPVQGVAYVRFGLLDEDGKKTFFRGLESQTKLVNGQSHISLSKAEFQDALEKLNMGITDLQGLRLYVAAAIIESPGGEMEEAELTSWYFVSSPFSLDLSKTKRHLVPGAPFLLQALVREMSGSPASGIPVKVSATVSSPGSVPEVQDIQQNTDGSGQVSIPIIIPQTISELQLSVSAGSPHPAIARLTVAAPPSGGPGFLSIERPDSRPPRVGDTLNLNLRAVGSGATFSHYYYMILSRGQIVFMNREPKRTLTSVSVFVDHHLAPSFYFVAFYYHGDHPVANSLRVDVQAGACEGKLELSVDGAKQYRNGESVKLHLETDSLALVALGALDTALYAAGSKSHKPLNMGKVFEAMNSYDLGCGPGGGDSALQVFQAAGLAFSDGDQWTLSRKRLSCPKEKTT
T3 sequence (P0C0L4 757-1446 partner limits assumed): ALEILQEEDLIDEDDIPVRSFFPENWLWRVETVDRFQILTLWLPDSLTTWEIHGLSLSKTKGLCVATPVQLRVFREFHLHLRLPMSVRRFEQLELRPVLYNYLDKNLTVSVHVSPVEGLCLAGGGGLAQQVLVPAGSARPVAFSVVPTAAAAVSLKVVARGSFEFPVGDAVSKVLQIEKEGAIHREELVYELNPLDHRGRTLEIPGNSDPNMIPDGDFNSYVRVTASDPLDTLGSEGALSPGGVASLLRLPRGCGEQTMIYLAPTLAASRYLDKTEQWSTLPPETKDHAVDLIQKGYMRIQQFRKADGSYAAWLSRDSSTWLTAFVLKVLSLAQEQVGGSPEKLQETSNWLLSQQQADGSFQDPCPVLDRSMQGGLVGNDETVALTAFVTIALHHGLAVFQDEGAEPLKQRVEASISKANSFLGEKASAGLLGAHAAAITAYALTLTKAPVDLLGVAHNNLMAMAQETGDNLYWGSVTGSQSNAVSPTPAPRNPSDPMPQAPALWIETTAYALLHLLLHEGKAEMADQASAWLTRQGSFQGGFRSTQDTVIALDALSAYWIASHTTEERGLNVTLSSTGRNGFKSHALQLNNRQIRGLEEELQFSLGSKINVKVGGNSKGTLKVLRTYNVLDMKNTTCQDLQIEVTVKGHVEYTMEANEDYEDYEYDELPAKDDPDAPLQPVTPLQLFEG
T3 sequence (P0C0L4 1454-1744 partner limits assumed): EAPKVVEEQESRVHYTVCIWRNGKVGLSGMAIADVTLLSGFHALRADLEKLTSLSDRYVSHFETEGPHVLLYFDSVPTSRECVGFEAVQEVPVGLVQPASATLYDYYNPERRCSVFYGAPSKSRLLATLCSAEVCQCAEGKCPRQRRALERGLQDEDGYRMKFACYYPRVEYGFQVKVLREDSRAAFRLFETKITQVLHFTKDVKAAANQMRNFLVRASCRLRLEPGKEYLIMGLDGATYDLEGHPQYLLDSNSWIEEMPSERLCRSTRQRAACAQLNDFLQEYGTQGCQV
Chain of plasmin (P00747 581-810 limits assumed, species assumed): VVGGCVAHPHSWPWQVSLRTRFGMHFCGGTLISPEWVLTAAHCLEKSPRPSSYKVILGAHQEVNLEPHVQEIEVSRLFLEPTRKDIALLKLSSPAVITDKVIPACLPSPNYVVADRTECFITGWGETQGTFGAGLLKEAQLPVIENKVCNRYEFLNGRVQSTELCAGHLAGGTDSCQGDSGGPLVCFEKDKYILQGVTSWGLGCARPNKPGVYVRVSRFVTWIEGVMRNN
Chain of plasmin (P00747 97-580 partner limits assumed, species assumed): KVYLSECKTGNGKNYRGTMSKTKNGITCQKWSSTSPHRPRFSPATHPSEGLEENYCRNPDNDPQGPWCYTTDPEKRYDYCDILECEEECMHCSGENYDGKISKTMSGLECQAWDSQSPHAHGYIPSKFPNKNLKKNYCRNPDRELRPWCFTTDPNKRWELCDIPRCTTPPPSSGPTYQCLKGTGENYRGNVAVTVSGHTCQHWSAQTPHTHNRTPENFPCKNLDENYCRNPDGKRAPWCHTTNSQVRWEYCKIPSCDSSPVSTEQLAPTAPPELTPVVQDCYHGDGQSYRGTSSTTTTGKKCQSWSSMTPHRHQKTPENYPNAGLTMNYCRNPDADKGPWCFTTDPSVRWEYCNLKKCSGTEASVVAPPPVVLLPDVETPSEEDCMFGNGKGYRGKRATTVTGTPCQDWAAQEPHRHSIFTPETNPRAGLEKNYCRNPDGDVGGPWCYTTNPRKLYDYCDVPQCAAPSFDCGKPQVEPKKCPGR

As for `Cc1cc(=O)oc2cc(NC(=O)[C@H](CCCNC(=N)N)NC(=O)[C@H](CO)NC(=O)[C@H](Cc3ccccc3)NC(=O)OC(C)(C)C)ccc12` [Boc-Phe-Ser-Arg-AMC] (Boc-Phe-Ser-Arg-{AMC}), the “Cleavage Rates, Urokinase” value on urokinase [1] is 0.044 nM/min. In the assay with trypsin [2], the “Cleavage Rates, Trypsin” value is on record as 17 nM/min.
Regarding `Cc1cc(=O)oc2cc(NC(=O)[C@H](CCCCN)NC(=O)[C@H](CCCCN)NC(=O)[C@@H](N)CCC(=O)O)ccc12` [Glu-Lys-Lys-AMC] (H-Glu-Lys-Lys-{AMC}), the “Cleavage Rates, Urokinase” value at urokinase [1] was found to be 0 nM/min. Besides, the “Cleavage Rates, Trypsin” value in the assay on trypsin [2] stood at 0.62 nM/min.
Consider “Glycine-Glycine-Arginine-Tyrosine [Gly--Gly--Arg--Tyr*]”, for which the “Cleavage Rates Released Group, Urokinase” value at urokinase [3] was “.01 nM/min”. Moreover, in the assay with trypsin [4], the “Cleavage Rates Released Group, Trypsin” value turned out to be 4 nM/min.
Consider `Cc1cc(=O)oc2cc(NC(=O)[C@H](CCCNC(=N)N)NC(=O)[C@H](Cc3ccccc3)NC(=O)[C@@H]3CCCN3)ccc12` [Pro-Phe-Arg-AMC] (H-Pro-Phe-Arg-{AMC}), for which the “Cleavage Rates, Urokinase” value at urokinase [1] stood at 0 nM/min. Moreover, in the assay on trypsin [2], the “Cleavage Rates, Trypsin” value was 0 nM/min.
With `Cc1cc(=O)oc2cc(NC(=O)[C@H](CCCNC(=N)N)NC(=O)CNC(=O)[C@@H](NC(=O)OC(C)(C)C)C(C)C)ccc12` [Boc-Val-Gly-Arg-AMC] (Boc-Val-Gly-Arg-{AMC}), the “Cleavage Rates, Urokinase” value on urokinase [1] came to 2.8 nM/min. Besides, the “Cleavage Rates, Trypsin” value with trypsin [2] came to 720 nM/min.
For `Cc1cc(=O)oc2cc(NC(=O)[C@H](CCCNC(=N)N)NC(=O)CNC(=O)[C@@H](N)CCC(=O)O)ccc12` [Glu-Gly-Arg-AMC] (H-Glu-Gly-Arg-{AMC}), in that order: 35 nM/min and 140 nM/min.
For `Cc1cc(=O)oc2cc(NC(=O)[C@H](CCCNC(=N)N)NC(=O)[C@H](CCCNC(=N)N)NC(=O)[C@H](CCC(=O)O)NC(=O)OC(C)(C)C)ccc12` [Boc-Glu-Arg-Arg-AMC] (Boc-Glu-Arg-Arg-{AMC}), in that order: 0 nM/min and 3.7 nM/min.
On to `Cc1cc(=O)oc2cc(NC(=O)[C@H](CCCNC(=N)N)NC(=O)[C@@H]3CCCN3C(=O)[C@@H](NC(=O)OC(C)(C)C)C(C)C)ccc12` [Boc-Val-Pro-Arg-AMC] (Boc-Val-Pro-Arg-{AMC}), for which the “Cleavage Rates, Urokinase” value on urokinase [1] is 0 nM/min. Besides, the “Cleavage Rates, Trypsin” value in the assay with trypsin [2] is given as 3.8 nM/min.
“PGRVVGY [Pro--Gly--Arg--Val--Val--Gly--Tyr*, plasminogen analog]”: the “Cleavage Rates Released Group, Urokinase” value in the assay with urokinase [3] was “.01 nM/min”. The “Cleavage Rates Released Group, Trypsin” value with trypsin [4] stood at 3 nM/min.
In the case of `Cc1cc(=O)oc2cc(NC(=O)[C@H](CCCNC(=N)N)NC(=O)CNC(=O)CN)ccc12` [Gly--Gly--Arg--AMC, Gly-Gly-Arg-AMC], at urokinase [1], the “Cleavage Rates, Urokinase” value was 27 nM/min. For the same compound, the “Cleavage Rates, Trypsin” value with trypsin [2] turned out to be 450 nM/min. Further, the “Cleavage Rates Released Group, Trypsin” value with trypsin [2] (trypsin 100 ug/ml, substrate 100 uM) is 20,000 nM/min. For the same compound, the “Cleavage Rates, complement component (column head drawing 18)” value in assay [5] lay within 0.9 to 1.2 nM/min. In assay [6], the “Cleavage Rates, complement component (column head drawing 17)” value is 0.9 to 1.2 nM/min. Besides, the “Cleavage Rates, Plasmin” value at plasmin amounted to 0.005 nM/min.
On to `Cc1cc(=O)oc2cc(NC(=O)[C@H](CCCNC(=N)N)NC(=O)CNC(=O)[C@H](CC(C)C)NC(=O)OC(C)(C)C)ccc12` [Boc-Leu-Gly-Arg-AMC, Boc-leu-gly-arg-7-amino-4-methylcoumarin] (Boc-Leu-Gly-Arg-{AMC}), for which, at urokinase [1], the “Cleavage Rates, Urokinase” value came to 3.7 nM/min. Further, in the assay with trypsin [2], the “Cleavage Rates, Trypsin” value is 750 nM/min.
